Measurements taken from patent US10420787B2, “Crystal-water-free calcium dibutyryladenosine cyclophosphate crystal form and preparation method and application thereof” (SPH NO.1 BIOCHEMICAL & PHARMACEUTICAL CO., LTD., priority 2014, dated 2019).
Values joined by “and” are separate entries in the source; they are usually repeats but may differ in a detail not shown here. Equal entries are not always repeated.

Columns and labels:
[1] = Long-term observation stability test (16° C., relative humidity 60±5%, 12 months); assay type: physicochemical; settings: RH 60±5%; for Related substances (%): HPLC
Text: (§1) Chromatographic conditions include:
(§2) HPLC purity is detected according to the method in the following embodiments.

[2] = Hygrothermal acceleration stability test (30° C., relative humidity 75±5%, 6 months); assay type: physicochemical; settings: RH 75±5%; for Related substances (%): HPLC
Text: as §1, §2

| Molecule | Content (%) ([1]; 0 months) | Related substances (%) ([1]; 0 months) | Content (%) ([1]; 3 months) | Related substances (%) ([1]; 3 months) | Related substances (%) ([1]; 6 months) | Content (%) ([1]; 9 months) | Related substances (%) ([1]; 9 months) | Content (%) ([1]; 12 months) | Related substances (%) ([1]; 12 months) | Related substances (%) ([2]; 0 months) | Content (%) ([2]; 1 month) | Related substances (%) ([2]; 1 month) | Content (%) ([2]; 2 months) | Related substances (%) ([2]; 2 months) | Content (%) ([2]; 3 months) | Related substances (%) ([2]; 3 months) | Content (%) ([2]; 6 months) | Related substances (%) ([2]; 6 months) | Content (%) ([1]; 6 months) | Content (%) ([2]; 0 months) |
| --- | --- | --- | --- | --- | --- | --- | --- | --- | --- | --- | --- | --- | --- | --- | --- | --- | --- | --- | --- | --- |
| CCCC(=O)Nc1ncnc2c1ncn2[C@@H]1O[C@@H]2COP(=O)([O-])O[C@H]2[C@H]1OC(=O)CCC.CCCC(=O)Nc1ncnc2c1ncn2[C@@H]1O[C@@H]2COP(=O)([O-])O[C@H]2[C@H]1OC(=O)CCC.[Ca+2] [Anhydrouscalcium dibutyryladenosine cyclophosphate solids] [anhydrous calcium dibutyryladenosine cyclophosphate, reference compound] | 954% | 4.3% | 95.0% | 4.6% | 4.8% | 94.4% | 5.2% | 94.1% | 5.4% | 4.3% | 94.8% | 4.9% | 94.2% | 5.5% | 93.5% | 6.0% | 93.0% | 6.7% | – | – |
| CCCC(=O)Nc1ncnc2c1ncn2[C@@H]1O[C@@H]2COP(=O)([O-])O[C@H]2[C@H]1OC(=O)CCC.CCCC(=O)Nc1ncnc2c1ncn2[C@@H]1O[C@@H]2COP(=O)([O-])O[C@H]2[C@H]1OC(=O)CCC.[Ca+2] [calcium dibutyryladenosine cyclophosphate] | 95.8% and 96.2% and 95.2% | 3.8% and 4.1% and 4.0% | 95.5% and 96.1% and 95.3% | 3.7% and 4.2% and 4.1% | 3.8% and 4.1% and 4.3% | 95.5% and 95.9% and 95.0% | 3.7% and 4.0% and 4.2% | 95.3% and 95.8% and 94.9% | 4.0% and 4.3% and 4.4% | 3.8% and 4.1% and 4.0% | 95.3% and 95.8% and 95.0% | 3.9% and 4.0% and 4.1% | 95.1% and 95.4% | 4.0% and 4.1% | 94.9% and 95.0% and 94.7% | 4.2% and 4.3% | 94.5% and 94.7% and 94.3% | 4.5% and 4.7% and 4.6% | 95.6% and 96.0% and 95.1% | 95.8% and 96.2% and 95.2% |
| calcium dibutyryladenosine cyclophosphate 2.3 hydrates [DBC-Ca•2.3H2O crystals, reference compound] | 90.2% | 5.3% | 90.0% | 5.3% | 5.5% | 89.7% | 5.6% | 89.6% | 5.9% | 5.3% | 90.1% | 5.5% | 89.8% | 5.8% | 89.7% | 5.9% | 89.3% | 6.1% | 89.9% | 90.2% |
